From patent US20060069132A1, “Azolecarboxamide herbicides” (priority 2004, published 2006)

Columns and labels:
barnyardgrass [1] = experiment: Test B flooded paddy test; assay type: in vivo, Echinochloa crus-galli; settings: 1000 g ai/ha, scale 0 to 100 (0 no effect, 100 complete control)
In short: (§1)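 Paddy species grown to the 2-leaf stage under flooding; blackgrass sprayed postemergence at 2–18 cm (1- to 4-leaf stage). Plants kept in a greenhouse for 13 to 15 days, then visually rated against controls on 0 (no effect) to 100 (complete control).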

lambsquarters = experiment: Test B pre-/postemergence herbicide test; assay type: in vivo, Chenopodium album; settings: for Lambsquarters plant response rating: postemergence
In short: (§2)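 Visual rating, 0 (no effect) to 100 (complete control), versus untreated controls after 13–15 d in greenhouse. Pre- and postemergence applications (postemergence plants 2–18 cm, 1–4 leaves); flooded paddy arm at 2-leaf stage. Compounds in non-phytotoxic solvent plus surfactant.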

ducksalad = experiment: Test B flooded paddy test; assay type: in vivo, Heteranthera limosa; settings: 1000 g ai/ha, scale 0 to 100 (0 no effect, 100 complete control)
In short: as §1

wild oat = experiment: Test B postemergence herbicide test; assay type: in vivo, Avena fatua; settings: scale 0 (no effect) to 100 (complete control); for Oat, Wild plant response rating: postemergence, visual rating
In short: (§3)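 Greenhouse test; postemergence application to plants at 1–4 leaves (2–18 cm); paddy species at 2 leaves; evaluated visually vs controls at 13–15 days; scale 0–100 (100 = complete control).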

corn = experiment: Test B pre-/postemergence herbicide test; assay type: in vivo, Zea mays
In short: as §2

cocklebur = experiment: Test B pre-/postemergence herbicide test; assay type: in vivo, Xanthium strumarium
In short: (§4)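 Test chemicals in a non-phytotoxic solvent mixture with surfactant were applied preemergence to seeded species and postemergence to plants 2-18 cm tall (1- to 4-leaf stage); rice and barnyardgrass were also tested in a flooded paddy at the 2-leaf stage. Visual rating versus controls after 13-15 days in greenhouse, scale 0 (no effect) to 100 (complete control).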

[2] = test system: small flower umbrella sedge; experiment: Test B flooded paddy test; assay type: in vivo, Cyperus difformis; settings: 1000 g ai/ha, scale 0 to 100 (0 no effect, 100 complete control)
In short: as §1

rice [3] = experiment: Test B pre-/postemergence herbicide test; assay type: in vivo, Oryza sativa; settings: preemergence
In short: as §2

velvetleaf = experiment: Test B pre-/postemergence herbicide test; assay type: in vivo, Abutilon theophrasti; settings: for Velvetleaf plant response rating: postemergence
In short: as §2

blackgrass = experiment: Test B postemergence herbicide test; assay type: in vivo, Alopecurus myosuroides; settings: scale 0 (no effect) to 100 (complete control); for Blackgrass plant response rating: postemergence, visual rating
In short: as §1

Surinam grass = experiment: Test B pre-/postemergence herbicide test; assay type: in vivo, Urochloa decumbens; settings: for Surinam Grass plant response rating: postemergence
In short: as §2

giant foxtail = experiment: Test B pre-/postemergence herbicide test; assay type: in vivo, Setaria faberi
In short: as §2

morningglory = experiment: Test B pre-/postemergence herbicide test; assay type: in vivo, Ipomoea coccinea; settings: for Morningglory plant response rating: postemergence
In short: as §4

wheat = experiment: Test B postemergence herbicide test; assay type: in vivo, Triticum aestivum; design: key to Wheat plant response rating: 0 = no effect, 100 = complete control; settings: scale 0 (no effect) to 100 (complete control); for Wheat plant response rating: postemergence, visual rating
In short: as §3

large crabgrass = experiment: Test B pre-/postemergence herbicide test; assay type: in vivo, Digitaria sanguinalis
In short: as §2

barnyardgrass [4] = experiment: Test B pre-/postemergence herbicide test; assay type: in vivo, Echinochloa crus-galli
In short: as §4

rice [5] = experiment: Test B flooded paddy test; assay type: in vivo, Oryza sativa; settings: 1000 g ai/ha, scale 0 to 100 (0 no effect, 100 complete control)
In short: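 Read-out: visual comparison with controls, scored 0 to 100, where 100 means complete control and 0 no effect. Formulated chemicals were applied postemergence to plants 2–18 cm tall (1- to 4-leaf), or to flooded-paddy plants at the 2-leaf stage, then held 13 to 15 days under glass.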

pigweed = experiment: Test B pre-/postemergence herbicide test; assay type: in vivo, Amaranthus retroflexus; settings: for Pigweed plant response rating: postemergence
In short: as §2

[6] = Postemergence, 500 g ai/ha, visual rating after 13 to 15 days, scale 0 (no effect) to 100 (complete control)
[7] = 125 g ai/ha, visual rating, scale 0 (no effect) to 100 (complete control)
[8] = preemergence, 125 g ai/ha, 0 to 100 scale, 0 is no effect, 100 is complete control
[9] = Postemergence, 500 g ai/ha, visual rating after 13 to 15 days
[10] = Preemergence, 500 g ai/ha, scale 0 to 100
[11] = postemergence, 125 g ai/ha, visual rating, scale 0 (no effect) to 100 (complete control)
[12] = 125 g ai/ha, 0 = no effect, 100 = complete control, preemergence
[13] = 500 g ai/ha, visual rating, 0 = no effect, 100 = complete control, preemergence
[14] = 500 g ai/ha, visual rating, scale 0 (no effect) to 100 (complete control)
[15] = postemergence, 500 g ai/ha, visual rating, scale 0 (no effect) to 100 (complete control)

## CCNC(=O)c1cc(NC(=O)c2cc(C(C)(C)C)nn2CC)ccc1C [Compound 68]
Barnyardgrass [1]; visual rating, 13 to 15 days
  Barnyardgrass plant response rating: 0
lambsquarters; [6]
  Plant response rating, Lambsquarters: 10
lambsquarters; [7]
  Lambsquarters plant response rating: 0
lambsquarters; [8]
  Plant response rating, Lambsquarters: 20
ducksalad; visual rating, 13 to 15 days
  Ducksalad plant response rating: 0
Wild oat; [9]
  Plant response rating, Oat, Wild: 20
Wild oat; 125 g ai/ha
  Oat, Wild plant response rating: 10
corn; [6]
  Plant response rating, Corn: 0
corn; [10]
  Corn plant response rating: 0
corn; [11]
  Corn plant response rating: 0
corn; [8]
  Plant response rating, Corn: 0
cocklebur; [6]
  Plant response rating, Cocklebur: 10
cocklebur; [10]
  Cocklebur plant response rating: 0
cocklebur; [11]
  Cocklebur plant response rating: 10
cocklebur; [8]
  Plant response rating, Cocklebur: 0
[2]; visual rating, 13 to 15 days
  Sedge, Umbrella plant response rating: 0
Rice [3]; 125 g ai/ha, 0 to 100 scale, 0 is no effect, 100 is complete control
  Plant response rating, Rice: 0
velvetleaf; [6]
  Plant response rating, Velvetleaf: 0
velvetleaf; [7]
  Velvetleaf plant response rating: 0
velvetleaf; [8]
  Plant response rating, Velvetleaf: 0
blackgrass; [9]
  Plant response rating, Blackgrass: 20
blackgrass; 125 g ai/ha
  Blackgrass plant response rating: 10
Surinam grass; [6]
  Plant response rating, Surinam Grass: 0
Surinam grass; [7]
  Surinam Grass plant response rating: 0
Surinam grass; [8]
  Plant response rating, Surinam Grass: 0
Giant foxtail; [6]
  Plant response rating, Foxtail, Giant: 0
Giant foxtail; [10]
  Foxtail, Giant plant response rating: 0
Giant foxtail; [11]
  Foxtail, Giant plant response rating: 0
Giant foxtail; [8]
  Plant response rating, Foxtail, Giant: 0
morningglory; [6]
  Plant response rating, Morningglory: 0
morningglory; [7]
  Morningglory plant response rating: 0
morningglory; [8]
  Plant response rating, Morningglory: 20
wheat; [9]
  Plant response rating, Wheat: 0
wheat; 125 g ai/ha
  Wheat plant response rating: 0
Large crabgrass; [6]
  Plant response rating, Crabgrass, Large: 0
Large crabgrass; [10]
  Crabgrass, Large plant response rating: 0
Large crabgrass; [11]
  Crabgrass, Large plant response rating: 0
Large crabgrass; [8]
  Plant response rating, Crabgrass, Large: 0
Barnyardgrass [4]; [6]
  Plant response rating, Barnyardgrass: 0
Barnyardgrass [4]; [10]
  Barnyardgrass plant response rating: 10
Barnyardgrass [4]; [11]
  Barnyardgrass plant response rating: 0
Barnyardgrass [4]; [8]
  Plant response rating, Barnyardgrass: 0
Rice [5]; visual rating, 13 to 15 days
  Rice plant response rating: 0
pigweed; [6]
  Plant response rating, Pigweed: 30
pigweed; [7]
  Pigweed plant response rating: 10
pigweed; [8]
  Plant response rating, Pigweed: 70

## CCc1cn(C(C)(C)C)nc1C(=O)Nc1cc(C(=O)N(CC)CC)ccn1 [Compound 234]
Barnyardgrass [1]
  Barnyardgrass plant response rating: 0
lambsquarters; [12]
  Lambsquarters plant response rating (0 to 100 scale): 0
lambsquarters; [13]
  Plant response rating, Lambsquarters: 50
lambsquarters; [7]
  Lambsquarters plant response rating: 20
lambsquarters; [14]
  Lambsquarters plant response rating: 40
ducksalad
  Ducksalad plant response rating: 0
Wild oat; 125 g ai/ha
  Oat, Wild plant response rating: 20
Wild oat; 500 g ai/ha
  Oat, Wild plant response rating: 20
corn; [12]
  Corn plant response rating (0 to 100 scale): 0
corn; [11]
  Corn plant response rating: 0
corn; [15]
  Corn plant response rating: 20
cocklebur; [12]
  Cocklebur plant response rating (0 to 100 scale): 0
cocklebur; [13]
  Plant response rating, Cocklebur: 0
cocklebur; [11]
  Cocklebur plant response rating: 10
cocklebur; [15]
  Cocklebur plant response rating: 20
[2]
  Sedge, Umbrella plant response rating: 0
Rice [3]; 125 g ai/ha, 0 = no effect, 100 = complete control
  Rice plant response rating (0 to 100 scale): 0
Rice [3]; 500 g ai/ha, visual rating, 0 = no effect, 100 = complete control
  Plant response rating, Rice: 0
velvetleaf; [12]
  Velvetleaf plant response rating (0 to 100 scale): 0
velvetleaf; [13]
  Plant response rating, Velvetleaf: 0
velvetleaf; [7]
  Velvetleaf plant response rating: 20
velvetleaf; [14]
  Velvetleaf plant response rating: 30
blackgrass; 125 g ai/ha
  Blackgrass plant response rating: 0
blackgrass; 500 g ai/ha
  Blackgrass plant response rating: 0
Surinam grass; [12]
  Surinam Grass plant response rating (0 to 100 scale): 0
Surinam grass; [13]
  Plant response rating, Surinam Grass: 0
Surinam grass; [7]
  Surinam Grass plant response rating: 0
Surinam grass; [14]
  Surinam Grass plant response rating: 10
Giant foxtail; [12]
  Foxtail, Giant plant response rating (0 to 100 scale): 0
Giant foxtail; [13]
  Plant response rating, Foxtail, Giant: 10
Giant foxtail; [11]
  Foxtail, Giant plant response rating: 0
Giant foxtail; [15]
  Foxtail, Giant plant response rating: 30
morningglory; [12]
  Morningglory plant response rating (0 to 100 scale): 0
morningglory; [13]
  Plant response rating, Morningglory: 0
morningglory; [7]
  Morningglory plant response rating: 20
morningglory; [14]
  Morningglory plant response rating: 70
wheat; 125 g ai/ha
  Wheat plant response rating: 0
wheat; 500 g ai/ha
  Wheat plant response rating: 10
Large crabgrass; [12]
  Crabgrass, Large plant response rating (0 to 100 scale): 0
Large crabgrass; [13]
  Plant response rating, Crabgrass, Large: 40
Large crabgrass; [11]
  Crabgrass, Large plant response rating: 10
Large crabgrass; [15]
  Crabgrass, Large plant response rating: 20
Barnyardgrass [4]; [12]
  Barnyardgrass plant response rating (0 to 100 scale): 0
Barnyardgrass [4]; [13]
  Plant response rating, Barnyardgrass: 0
Rice [5]
  Rice plant response rating: 0
pigweed; [12]
  Pigweed plant response rating (0 to 100 scale): 0
pigweed; [13]
  Plant response rating, Pigweed: 40
pigweed; [7]
  Pigweed plant response rating: 30
pigweed; [14]
  Pigweed plant response rating: 30
